One assay addresses FKBP12 (Homo sapiens (Human), UniProt P62942). The assay is described as follows: SPR assay to determine binding affinity to FKBP12 (direct binding). The following applies: immobilized biotinylated avi-FKBP12. The method, then:
SPR Assay to Determine Binding Affinity to FKBP12.
Biotinylated avi-FKBP12 was immobilized on a streptavidin chip (Cytiva Series S SA) using a Biacore 8K or 8 k+ (Cytiva). To achieve an immobilization level of 1000 RU, 2 μg/ml biotinylated avi-FKBP12 were injected for 100 sec at a flow rate of 10 μl/min. Rapalogs were diluted in DMSO to 100× working concentration. Each Rapalog was 100-fold diluted in 50 mM HEPES pH 7.5, 150 mM NaCl, 2 mM MgCl2, 1 mM DTT, 0.05% Tween-20 and a serial dilution prepared (9 concentrations, 3-fold dilutions, 0.08-500 nM). […] The compound dilutions were then injected at 100 uL/min for 120 seconds contact time in sequence with increasing concentrations. Dissociation was monitored for 3600 seconds. 50 mM HEPES pH 7.5, 150 mM NaCl, 2 mM MgCl2, 1 mM DTT, 0.05% Tween-20, 1% DMSO was used as running buffer. The single-cycle kinetics data were fit to a 1:1 binding model to measure the association rate ka (1/Ms), the dissociation rate kd (1/s) and the affinity Kd (M).
On the technique in general: SPR reads the build-up and loss of mass on a sensor chip optically.

A further assay addresses FKBP51 (Homo sapiens (Human), UniProt Q13451). The assay is described as follows: SPR assay to determine binding affinity to FKBP51 (direct binding). The following applies: immobilized biotinylated avi-FKBP51. The method, then: Example 29: SPR Assay to Determine Binding Affinity to FKBP51
Biotinylated avi-FKBP51 was immobilized on a streptavidin chip (Cytiva Series S SA) using a Biacore 8K or 8 k+ (Cytiva). To achieve an immobilization level of 2000 RU, 3 μg/ml biotinylated avi-FKBP51 were injected for 360 sec at a flow rate of 10 μl/min. Rapalogs were diluted in DMSO to 100× working concentration. Each Rapalog was 100-fold diluted in 50 mM HEPES pH 7.5, 150 mM NaCl, 2 mM MgCl2, 1 mM DTT, 0.05% Tween-20 and a serial dilution prepared (8 concentrations, 3-fold dilutions, 0.5-1000 nM). […] The compound dilutions were then injected at 100 uL/min for 120 seconds contact time and with 3600 seconds dissociation time with increasing concentrations. 50 mM HEPES pH 7.5, 150 mM NaCl, 2 mM MgCl2, 1 mM DTT, 0.05% Tween-20, 1% DMSO was used as running buffer. Multi-cycle kinetics data were fit to a 1:1 binding model to measure the association rate ka (1/Ms), the dissociation rate kd (1/s) and the affinity Kd (M).

For assay [1], the target named is FKBP12 / FRB ternary complex (Homo sapiens (Human), UniProt P42345+P62942). The experiment in a line: SPR assay to characterize ternary complex formation with FKBP12 (FRB binding to rapalog-saturated FKBP12). The following applies: FRB dilutions with 100 nM rapalog on immobilized FKBP12. The method, then:
Example 30: SPR Assay to Characterize Ternary Complex Formation with FKBP12
(§1) Biotinylated avi-FKBP12 was immobilized on a streptavidin chip (Cytiva Series S SA) using a Biacore 8K or 8 k+ (Cytiva). To achieve an immobilization level of 100 RU, 0.3 μg/ml biotinylated avi-FKBP12 were injected for 80 sec at a flow rate of 10 μl/min. Serial dilution of FRB was prepared (12 concentrations, 3-fold dilutions, 0.00011-20 μM) and supplemented with 100 nM of rapalog. A-B-A injection mode was used to ensure saturation immobilized FKBP12 with respective rapalog. 100 nM solution of the respective rapalog was injected before FRB injection for 120 sec and during dissociation for 420 sec. The FRB dilutions were then injected 120 seconds contact time with increasing concentrations. […] 50 mM HEPES pH 7.5, 150 mM NaCl, 2 mM MgCl2, 1 mM DTT, 0.05% Tween-20, 1% DMSO was used as running buffer at a flow rate of 30 μl/min. The multi-cycle kinetics data were fit to a 1:1 binding model to measure the association rate ka (1/Ms), the dissociation rate kd (1/s) and the affinity Kd (M). In case of fast association and dissociation, steady state affinity analysis following the law of mass action was used to determine the affinity Kd (M).

Assay [2] has as its target FKBP51 / FRB ternary complex (Homo sapiens (Human), UniProt P42345+Q13451). The experiment in a line: SPR assay to characterize ternary complex formation with FKBP51 (FRB binding to rapalog-saturated FKBP51). The following applies: FRB dilutions with 100 nM rapalog on immobilized FKBP51. The method, then: Example 31: SPR Assay to Characterize Ternary Complex Formation with FKBP51
as §1, with “Biotinylated avi-FKBP51” for “Biotinylated avi-FKBP12”, “of 200” for “of 100”, “RU, 0.6” for “RU, 0.3”, “biotinylated avi-FKBP51” for “biotinylated avi-FKBP12”, “for 150” for “for 80”

Another assay addresses mTORC1 (Homo sapiens (Human), UniProt P42345+P62942). The assay is described as follows: mTORC1 inhibition, AlphaLISA of Phospho-p70 S6 kinase (p70S6K pT389) in PC-3 cells. Format: cell-based. The following applies: inhibition of p70S6K pT389 levels.
The next assay addresses mTORC2 (Homo sapiens (Human), UniProt P42345+P62942). The assay is described as follows: mTORC2 inhibition, AlphaLISA of Phospho-AKT (pAKT pS473) in PC3 cells. The class given is cell-based. The method, then:
Example 32: mTORC1 Inhibition, mTORC2 Inhibition, Cell Lysis, AlphaLISA Experiments, and Data Analysis
mTORC2 inhibition was determined via analysis of phosphorylation level of Phospho-AKT (pAKT pS473) with the corresponding AlphaLISA kit (PerkinElmer, Alpha SF Ultra™ Multiplex p-AKT1/2/3(Ser473)/Total AKT1). PC3 cells were plated on 96 well plates in assay medium (DMEM: Ham's F12, basic (CLS Cell Lines Service GmbH, Cat #820400a), supplemented with additional 10% FBS at 1.20E+06 cells/mL and incubated over-night at 37° C., 5% CO2. On the following day, cells were treated with assay medium (10% FBS) containing increasing compound concentrations (12 points at 3-fold dilutions) and incubated for 6 hours at 37° C., 5% CO2. Thereafter, medium was aspirated and cells were rinsed with PBS. In the following, cells were treated with compound dilutions in starvation medium (DMEM: Ham's F12, basic; without FBS) for further 18 h at 37° C., 5% CO2. Then, immediately prior to cell lysis, cells were treated with 12% FBS for 15 min.
After performing experiments according to mTORC1 and mTORC2 protocols, cells were harvested in lysis buffer supplied with the AlphaLISA kits, additionally enriched with Roche cOmplete™ Protease Inhibitor Cocktail (Cat #CO-RO). Thus, cells were lysed using 50 μL of the lysis buffer and incubated for 60 min at 4° C. while shaking. After centrifugation at 4000 rpm for 5 min, experiments were performed according to the AlphaLISA manufacturer's protocol.
Ten microliters of cell lysates were mixed with the acceptor mix. After incubation for 2 h at room temperature, the donor mix was added. After additional incubation at room temperature for 2 hours, AlphaLISA signal was read on PHERAstar® FSX (BMG Labtech) with AlphaPLEX module.
EC50 values were calculated by ExcelFit standard algorithm.
A general note: Bead proximity is the source of the signal in Alpha formats.

Each structure is given as a SMILES string. pIC50, pKd: −log10 of the molar value.

FKBP12, sequence (P62942 whole entry): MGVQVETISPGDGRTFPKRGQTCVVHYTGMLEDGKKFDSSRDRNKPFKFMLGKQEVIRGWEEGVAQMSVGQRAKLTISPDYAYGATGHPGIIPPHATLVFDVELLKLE
FKBP51, sequence (Q13451 whole entry): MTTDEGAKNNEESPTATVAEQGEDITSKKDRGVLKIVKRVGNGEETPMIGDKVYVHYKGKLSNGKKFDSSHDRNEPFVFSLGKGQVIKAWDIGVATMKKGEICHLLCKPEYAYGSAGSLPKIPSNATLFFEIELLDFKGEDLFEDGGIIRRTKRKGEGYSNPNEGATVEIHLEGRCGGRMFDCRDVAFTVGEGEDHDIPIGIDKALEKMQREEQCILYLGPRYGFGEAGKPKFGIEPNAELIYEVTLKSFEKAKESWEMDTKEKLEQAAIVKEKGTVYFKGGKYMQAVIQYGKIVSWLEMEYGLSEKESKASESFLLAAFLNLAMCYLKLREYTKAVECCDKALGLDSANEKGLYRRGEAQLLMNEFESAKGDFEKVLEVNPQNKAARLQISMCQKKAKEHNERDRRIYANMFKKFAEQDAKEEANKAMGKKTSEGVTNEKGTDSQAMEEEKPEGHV

One may read the pKd as −log10 of the Kd, conventionally taken in molar units. One may read the pIC50 as the negative decadic logarithm of the IC50, by convention in mol/L. Turning to `COCCS(=O)(=O)NC1CC2CCC(C)C(O)(O2)C(=O)C(=O)N2CCCCC2C(=O)OC(C(C)CC2CCC(OCCO)C(OC)C2)CC(=O)C(C)C=C(C)C(O)C(OC)C(=O)C(C)CC(C)C=CC=CC=C1C` (mixture of isomers) [Compound 16], the pKd on FKBP12 was over 9.52; at FKBP51 it was 7.00 to 8.00; in assay [1], 6.10 to 6.52; in assay [2], under 6.10. In addition, the pIC50 against mTORC1 was 9.10 to 10.00. Further, the “mTORC2 % inhibition at 1 uM” value at mTORC2 is “B (B>20% and less than 40% inhibition at 1 uM)”.
Take `COCCS(=O)(=O)NC1CC2CCC(C)C(O)(O2)C(=O)C(=O)N2CCCCC2C(=O)OC(C(C)CC2CCC(OCCCS(C)(=O)=O)C(OC)C2)CC(=O)C(C)C=C(C)C(O)C(OC)C(=O)C(C)CC(C)C=CC=CC=C1C` (mixture of isomers) [Compound 17]: the pKd is over 9.52 on FKBP12, 7.00 to 8.00 at FKBP51, 6.10 to 6.52 in assay [1] and under 6.10 in assay [2]. In addition, at mTORC1, the pIC50 was 9.10 to 10.00. For the same compound, at mTORC2, the “mTORC2 % inhibition at 1 uM” value was “A (A ≤20% inhibition at 1 micro Molar (uM))”.
In the case of `COCCS(=O)(=O)NC1CC2CCC(C)C(O)(O2)C(=O)C(=O)N2CCCCC2C(=O)OC(C(C)CC2CCC(O)C(OC)C2)CC(=O)C(C)C=C(C)C(O)C(OC)C(=O)C(C)CC(C)C=CC=CC=C1C` (mixture of isomers) [Compound 24], the pKd at FKBP12 is over 9.52; on FKBP51, 7.00 to 8.00; in assay [1] it was 6.10 to 6.52; in assay [2], 6.10 to 6.52. This compound gave a pIC50 on mTORC1 of 9.10 to 10.00. Besides, the “mTORC2 % inhibition at 1 uM” value at mTORC2 is recorded as “A (A ≤20% inhibition at 1 micro Molar (uM))”.
For `COCCOCCOC1CC2CCC(C)C(O)(O2)C(=O)C(=O)N2CCCCC2C(=O)OC(C(C)CC2CCC(OCCCS(C)(=O)=O)C(OC)C2)CC(=O)C(C)C=C(C)C(O)C(OC)C(=O)C(C)CC(C)C=CC=CC=C1C` (mixture of isomers) [Compound 65], the pKd on FKBP12 is over 9.52; at FKBP51, 7.00 to 8.00; in assay [1], 6.10 to 6.52; in assay [2] it was under 6.10. On mTORC1, the pIC50 was 9.10 to 10.00. The “mTORC2 % inhibition at 1 uM” value on mTORC2 is reported as “A (A ≤20% inhibition at 1 micro Molar (uM))”.
For `COCCOCCOCCOC1CC2CCC(C)C(O)(O2)C(=O)C(=O)N2CCCCC2C(=O)OC(C(C)CC2CCC(OCCCS(C)(=O)=O)C(OC)C2)CC(=O)C(C)C=C(C)C(O)C(OC)C(=O)C(C)CC(C)C=CC=CC=C1C` (mixture of isomers) [Compound 66], the pKd was 9.00 to 9.52 on FKBP12, 7.00 to 8.00 on FKBP51, under 6.10 in assay [1] and under 6.10 in assay [2]. The same compound gave a pIC50 against mTORC1 of 9.10 to 10.00. In addition, the “mTORC2 % inhibition at 1 uM” value on mTORC2 is reported as “A (A ≤20% inhibition at 1 micro Molar (uM))”.
For the compound `COCCOCCS(=O)(=O)NC1CC2CCC(C)C(O)(O2)C(=O)C(=O)N2CCCCC2C(=O)OC(C(C)CC2CCC(OCCCO)C(OC)C2)CC(=O)C(C)C=C(C)C(O)C(OC)C(=O)C(C)CC(C)C=CC=CC=C1C` (stereo not drawn) [Compound 2], the pKd at FKBP12 was over 9.52; at FKBP51 it was 7.00 to 8.00; in assay [1], over 6.52; in assay [2], 6.10 to 6.52. The pIC50 against mTORC1 was over 10.00. Further, the “mTORC2 % inhibition at 1 uM” value on mTORC2 is listed as “A (A ≤20% inhibition at 1 micro Molar (uM))”.
Turning to `COCCOCCS(=O)(=O)NC1CC2CCC(C)C(O)(O2)C(=O)C(=O)N2CCCCC2C(=O)OC(C(C)CC2CCC(OCCCO)C(OC)C2)CC(=O)C(C)C=C(C)C(O)C(OC)C(=O)C(C)CC(C)C=CC=CC=C1C` (stereo not drawn) [Compound 3], the pKd on FKBP12 was 9.00 to 9.52; on FKBP51, under 7.00; in assay [1], under 6.10; in assay [2], under 6.10. On mTORC1, the pIC50 is under 9.10. For the same compound, on mTORC2, the “mTORC2 % inhibition at 1 uM” value is “A (A ≤20% inhibition at 1 micro Molar (uM))”.
`CO[C@@H]1C[C@H](C[C@@H](C)[C@@H]2CC(=O)[C@H](C)/C=C(\C)[C@@H](O)[C@@H](OC)C(=O)[C@H](C)C[C@H](C)/C=C/C=C/C=C(\C)[C@H](NS(=O)(=O)CC3CCOCC3)C[C@@H]3CC[C@@H](C)[C@@](O)(O3)C(=O)C(=O)N3CCCC[C@H]3C(=O)O2)CC[C@H]1O` [Compound 5]: the pKd at FKBP12 was over 9.52; on FKBP51 it was 7.00 to 8.00; in assay [1] it was under 6.10; in assay [2] it was under 6.10. In addition, at mTORC1, the negative-log IC50 (pIC50) was 9.10 to 10.00. Further, at mTORC2, the “mTORC2 % inhibition at 1 uM” value is “A (A ≤20% inhibition at 1 micro Molar (uM))”.
`CO[C@@H]1C[C@H](C[C@@H](C)[C@@H]2CC(=O)[C@H](C)/C=C(\C)[C@@H](O)[C@@H](OC)C(=O)[C@H](C)C[C@H](C)/C=C/C=C/C=C(\C)[C@@H](NS(=O)(=O)CC3CCOCC3)C[C@@H]3CC[C@@H](C)[C@@](O)(O3)C(=O)C(=O)N3CCCC[C@H]3C(=O)O2)CC[C@H]1O` [Compound 6]: the pKd at FKBP12 was over 9.52; at FKBP51 it was over 8.00; in assay [1], under 6.10; in assay [2], under 6.10. Besides, the pIC50 at mTORC1 was 9.10 to 10.00. Moreover, the “mTORC2 % inhibition at 1 uM” value at mTORC2 is “A (A ≤20% inhibition at 1 micro Molar (uM))”.
